Measurements: ChEMBL document CHEMBL1201862, “PubChem BioAssay data set” (2004)
Active and inactive are the calls of the source.

Key:
[1] = miR-122 activators in hepatoma reporter cells, dose response, cell-based, Huh7 psiCHECK-miR122, Renilla luciferase, cherry-picked (AID 651956); format: functional;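 further: huh7 hepatoma cells stably carrying a psiCHECK-2 miR-122 sensor plasmid; renilla luciferase signal reporting endogenous miR-122 activity after 48 h compound exposure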
[2] = HEK293 cell viability, dose response, counter-screen for EBV LMP1 inhibitor project, dry powder, set 2 (AID 624374); format: functional
Paired box protein Pax-8 = Paired box protein Pax-8 (Homo sapiens, UniProt Q06710); experiment: inhibitors of PAX8-driven TPO luciferase reporter, dose response, RMG-I cells, cherry-pick (AID 687027); format: functional, cell-based;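 further: luciferase reporter driven by Pax8 target thyroperoxidase promoter measured by SteadyGlo luminescence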
[3] = PAX2 cell-based inhibition, dose response, selectivity assay for PAX8 inhibitor project, plate reader, dry powder samples (AID 743048); format: functional;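 further: HEK293 cells carrying a WT1 promoter luciferase reporter driven by expressed Pax2; potency is for inhibition of Pax2 driven reporter signal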
[4] = A549 cell cytotoxicity, dose response, cytotoxicity control, 24 h, CellTiter-Glo luminescence, cherry-picks (AID 1053115); format: functional, cell-based; settings: A549, 24 h
[5] = PAX5 activity inhibitors, dose response, selectivity assay for PAX8 inhibitor project, cell-based, plate reader, dry powder samples (AID 743047); format: functional;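 further: HEK293 cells carrying a Pax5 driven CD19 promoter luciferase reporter; potency of inhibitors that lower reporter luminescence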
[6] = HEK293T cytotoxicity, dose response, cytotoxicity control for miR-122 modulator project, cell-based, inhibitor set, cherry-pick, set 2 (AID 720697); format: functional
[7] = cytotoxicity in OV-90 ovarian cancer cells, dose response, PAX8 inhibitor project, cell-based, plate reader, dry powder, SA8 (AID 743149); format: functional
[8] = cytotoxicity dependent on PAX8, dose response, cell-based, plate reader, dry powder (AID 743049); format: functional
[9] = A549 cell cytotoxicity, dose response, CellTiter-Glo luminescence, dry powder, set 17 (AID 1117284); format: functional, cell-based
[10] = NIH:OVCAR-3 ovarian cancer cell cytotoxicity, dose response, PAX8 inhibitor project, plate reader, dry powder samples (AID 743044); format: functional, cell-based
[11] = non-specific cell cytotoxicity, dose response, cytotoxicity control for PAX8 inhibitor project, plate reader, dry powder samples (AID 743021); format: functional, cell-based
[12] = cytotoxicity in OVCAR8 ovarian cancer cells, dose response, PAX8 project, cell-based, plate reader, dry powder samples (AID 743197); format: functional; settings: OVCAR-8
[13] = P. falciparum 3D7-ScDHODH growth inhibitors, dose response, SYBR Green, dry powder samples (AID 1159570); format: functional, cell-based;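 further: parasite growth measured after 72 hours of compound exposure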
[14] = HepG2 cell cytotoxicity, dose response, cytotoxicity control, plate reader, dry powder samples (AID 1159569); format: functional, cell-based;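 further: inhibitor potency with signal falling toward the positive control level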
[15] = P. falciparum Dd2 growth inhibitors, dose response, SYBR Green, cherry-picked samples (AID 1159567); format: functional, cell-based
[16] = P. falciparum Dd2 growth inhibitors, dose response, SYBR Green, dry powder samples (AID 1159566); format: functional, cell-based;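 further: potency for growth inhibition with lower SYBR green DNA signal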
[17] = HepG2 cell cytotoxicity, dose response, cytotoxicity control, cherry-picked samples (AID 1159577); format: functional, cell-based
[18] = P. falciparum ATP4 D1247Y mutant growth inhibitors, dose response, NITD609-resistant line, SYBR Green, dry powder (AID 1159571); format: functional, cell-based;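 further: parasites synchronized at ring stage by sorbitol before testing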
[19] = Vero cell cytotoxicity, dose response, cytotoxicity control for Vif-APOBEC3G degradation inhibitor project, Vero cells (AID 1117358); format: functional; settings: Human immunodeficiency virus 1, Vero
[20] = molecular target: G-protein coupled receptor 35 (Homo sapiens, UniProt Q9HC97); experiment: SAR Analysis for the identification of Selective Antagonists of ERK1/2 Activity in GPR35-Overexpressing U2OS Cells. [Related pubchem assays: 2079, 2058 ]; format: functional, cell-based
[21] = molecular target: G-protein coupled receptor 55 (Homo sapiens, UniProt Q9Y2T6); experiment: GPR55 antagonists, SAR follow-up, counter-screen for GPR35 antagonist project, imaging, image-based (AID 2397); format: functional
[22] = cytotoxicity in HEK-293T cells, dose response, cytotoxicity control for BCR NF-kB inhibitor project, luminescence, B-cell screen hits (AID 489021); format: functional, cell-based;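 further: HEK-293T cells carrying an NF-kB luciferase reporter; cells exposed to compound for about 14 hours before viability readout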
[23] = molecular target: T1, Replicative DNA helicase DnaB (Mycobacterium tuberculosis, UniProt P9WMR3); experiment: DnaB intein splicing inhibitors, dose response, biochemical, cell-free fluorescence (AID 449749); format: functional
T1 sequence (P9WMR3 whole entry): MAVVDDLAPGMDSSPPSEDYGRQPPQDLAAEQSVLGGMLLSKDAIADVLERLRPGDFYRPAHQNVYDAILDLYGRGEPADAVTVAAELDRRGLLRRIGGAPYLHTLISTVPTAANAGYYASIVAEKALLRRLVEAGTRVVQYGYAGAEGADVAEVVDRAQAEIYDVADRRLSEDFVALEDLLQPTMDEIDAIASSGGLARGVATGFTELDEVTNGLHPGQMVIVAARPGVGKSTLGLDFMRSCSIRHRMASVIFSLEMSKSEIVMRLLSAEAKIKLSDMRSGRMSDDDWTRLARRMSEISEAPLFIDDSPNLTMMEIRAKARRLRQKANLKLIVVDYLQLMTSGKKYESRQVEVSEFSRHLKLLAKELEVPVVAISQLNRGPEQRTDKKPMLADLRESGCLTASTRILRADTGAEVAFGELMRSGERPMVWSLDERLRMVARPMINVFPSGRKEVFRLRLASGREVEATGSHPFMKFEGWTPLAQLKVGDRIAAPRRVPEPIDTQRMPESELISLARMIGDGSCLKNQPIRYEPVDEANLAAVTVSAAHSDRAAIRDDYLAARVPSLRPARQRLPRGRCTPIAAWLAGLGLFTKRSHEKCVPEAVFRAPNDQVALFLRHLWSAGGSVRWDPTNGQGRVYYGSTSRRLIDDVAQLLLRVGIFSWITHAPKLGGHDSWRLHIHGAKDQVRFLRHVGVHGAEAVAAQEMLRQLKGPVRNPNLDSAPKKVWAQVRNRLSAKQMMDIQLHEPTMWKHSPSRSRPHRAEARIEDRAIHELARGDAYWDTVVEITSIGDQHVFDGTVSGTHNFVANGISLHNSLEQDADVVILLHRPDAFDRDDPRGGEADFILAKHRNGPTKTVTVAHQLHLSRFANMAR

Protein RecA = molecular target: T2, Protein RecA (Mycobacterium tuberculosis, UniProt P9WHJ3); experiment: Fluorescence Cell-Free Homogeneous Dose Retest to Identify Inhibitors of RecA-Intein Splicing Activity. [Related pubchem assays (depositor defined):AID2097, AID2223, AID489010, AID492950]; format: functional
T2 sequence (P9WHJ3 whole entry): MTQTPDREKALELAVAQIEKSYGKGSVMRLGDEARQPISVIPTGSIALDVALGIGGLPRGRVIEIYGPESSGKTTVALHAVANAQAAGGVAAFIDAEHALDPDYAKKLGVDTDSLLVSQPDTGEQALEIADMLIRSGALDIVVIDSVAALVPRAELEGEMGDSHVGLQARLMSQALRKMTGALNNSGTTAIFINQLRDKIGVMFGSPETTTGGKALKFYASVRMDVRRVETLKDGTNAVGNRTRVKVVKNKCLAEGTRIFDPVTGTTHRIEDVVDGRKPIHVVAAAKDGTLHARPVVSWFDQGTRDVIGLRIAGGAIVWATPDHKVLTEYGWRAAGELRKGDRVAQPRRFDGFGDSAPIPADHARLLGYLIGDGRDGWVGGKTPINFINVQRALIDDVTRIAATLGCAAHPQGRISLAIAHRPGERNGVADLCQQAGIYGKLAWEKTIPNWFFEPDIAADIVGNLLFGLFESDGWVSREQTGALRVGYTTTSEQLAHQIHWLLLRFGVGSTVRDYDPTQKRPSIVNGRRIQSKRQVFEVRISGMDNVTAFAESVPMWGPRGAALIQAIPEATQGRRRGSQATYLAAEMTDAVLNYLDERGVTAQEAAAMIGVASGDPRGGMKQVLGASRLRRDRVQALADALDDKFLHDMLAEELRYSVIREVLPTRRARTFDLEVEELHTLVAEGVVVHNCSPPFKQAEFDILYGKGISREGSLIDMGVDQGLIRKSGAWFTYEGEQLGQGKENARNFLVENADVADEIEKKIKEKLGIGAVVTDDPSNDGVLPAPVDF

[24] = molecular target: RNA-editing ligase 1, mitochondrial (Trypanosoma brucei brucei, UniProt P86926); experiment: TbREL1 ligase inhibitors, dose response, biochemical, fluorescence, Trypanosoma brucei (AID 1117295); format: functional
[25] = Luminescence-based cell-based high throughput dose response assay to identify activators of the DAF-12 from the parasite S. stercoralis (ssDAF-12).; format: functional
[26] = molecular target: T3, Oxysterols receptor LXR-beta (Homo sapiens, UniProt P55055); experiment: LXR agonists, Gal4 luciferase reporter, dose response, counter-screen for ssDAF-12 agonist project, cell-based, luminescence, HEK293, S. stercoralis campaign (AID 720737); format: functional; settings: read-out: IC50 (the source's name)
T3 sequence (P55055 whole entry): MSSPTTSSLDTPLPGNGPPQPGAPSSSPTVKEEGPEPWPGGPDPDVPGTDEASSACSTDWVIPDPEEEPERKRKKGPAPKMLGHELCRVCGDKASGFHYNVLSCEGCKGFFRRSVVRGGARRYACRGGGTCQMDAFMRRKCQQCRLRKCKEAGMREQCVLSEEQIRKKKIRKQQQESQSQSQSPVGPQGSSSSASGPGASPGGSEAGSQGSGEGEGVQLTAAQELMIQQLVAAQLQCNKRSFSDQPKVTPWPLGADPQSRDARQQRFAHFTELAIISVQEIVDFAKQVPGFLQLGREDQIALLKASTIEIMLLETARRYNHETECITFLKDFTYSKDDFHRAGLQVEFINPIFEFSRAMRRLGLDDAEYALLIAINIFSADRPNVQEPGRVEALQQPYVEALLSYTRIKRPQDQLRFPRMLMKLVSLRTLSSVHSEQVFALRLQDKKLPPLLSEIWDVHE

Chain of Paired box protein Pax-8 (Q06710 whole entry): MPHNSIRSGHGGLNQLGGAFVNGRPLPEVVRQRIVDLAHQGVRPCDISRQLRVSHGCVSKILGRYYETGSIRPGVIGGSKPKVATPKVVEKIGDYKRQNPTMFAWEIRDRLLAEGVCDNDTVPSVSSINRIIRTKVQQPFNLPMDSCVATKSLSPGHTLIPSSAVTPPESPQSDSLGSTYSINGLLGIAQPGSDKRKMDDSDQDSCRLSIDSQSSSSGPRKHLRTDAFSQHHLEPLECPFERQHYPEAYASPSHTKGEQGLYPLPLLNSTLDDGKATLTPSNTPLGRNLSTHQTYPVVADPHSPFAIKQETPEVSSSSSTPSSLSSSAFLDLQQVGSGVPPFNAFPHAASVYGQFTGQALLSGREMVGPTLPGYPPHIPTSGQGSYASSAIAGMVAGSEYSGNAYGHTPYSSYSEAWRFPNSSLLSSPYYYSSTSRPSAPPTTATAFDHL
Chain of G-protein coupled receptor 55 (Q9Y2T6 whole entry): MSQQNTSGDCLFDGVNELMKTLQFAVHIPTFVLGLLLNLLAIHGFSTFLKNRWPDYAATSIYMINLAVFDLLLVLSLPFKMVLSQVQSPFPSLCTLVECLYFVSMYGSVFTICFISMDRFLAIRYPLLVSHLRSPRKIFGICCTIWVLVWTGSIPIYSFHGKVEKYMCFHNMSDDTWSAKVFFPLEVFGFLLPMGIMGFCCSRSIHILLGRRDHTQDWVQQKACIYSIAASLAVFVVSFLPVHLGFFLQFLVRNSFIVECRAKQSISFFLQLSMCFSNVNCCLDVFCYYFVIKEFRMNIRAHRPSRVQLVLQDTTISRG
Chain of RNA-editing ligase 1, mitochondrial (P86926 whole entry): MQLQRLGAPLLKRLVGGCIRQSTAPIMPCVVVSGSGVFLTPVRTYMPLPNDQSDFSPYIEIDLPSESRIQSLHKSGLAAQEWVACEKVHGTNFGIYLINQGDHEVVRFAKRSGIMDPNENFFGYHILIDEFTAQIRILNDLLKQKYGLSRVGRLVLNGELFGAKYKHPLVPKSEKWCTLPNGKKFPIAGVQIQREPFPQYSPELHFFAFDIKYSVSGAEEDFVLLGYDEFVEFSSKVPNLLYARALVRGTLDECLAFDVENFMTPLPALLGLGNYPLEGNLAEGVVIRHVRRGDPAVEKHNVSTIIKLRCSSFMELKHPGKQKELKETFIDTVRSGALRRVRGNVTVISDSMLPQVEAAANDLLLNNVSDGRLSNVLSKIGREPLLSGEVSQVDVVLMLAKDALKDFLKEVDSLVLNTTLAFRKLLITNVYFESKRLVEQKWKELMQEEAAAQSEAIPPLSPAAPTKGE
Chain of G-protein coupled receptor 35 (Q9HC97 whole entry): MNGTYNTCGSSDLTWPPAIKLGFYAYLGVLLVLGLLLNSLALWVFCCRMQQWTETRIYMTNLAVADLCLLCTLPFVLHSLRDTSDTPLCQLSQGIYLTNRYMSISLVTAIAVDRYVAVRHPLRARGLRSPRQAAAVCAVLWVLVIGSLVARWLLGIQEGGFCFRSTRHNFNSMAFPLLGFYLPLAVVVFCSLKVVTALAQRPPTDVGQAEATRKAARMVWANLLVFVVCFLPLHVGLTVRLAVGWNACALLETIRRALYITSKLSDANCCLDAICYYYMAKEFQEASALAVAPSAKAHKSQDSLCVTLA

In the case of `C[C@@H]1CN([C@@H](C)CO)S(=O)(=O)c2ccc(C#C[C@@H](C)O)cc2O[C@H]1CN(C)Cc1ccc(-c2ccccc2)cc1`, the AC50 [1] was 20.3 µM (active), the AbsAC35 [2] was 211.64 µM and the AC50 (Paired box protein Pax-8) was 6.61 µM (active). The AC50 [3] was > 70 µM (inactive), the AC50 [4] was 53.4 µM (active) and the AC50 [5] was 41.3 µM (active). For the same compound, the AC50 [6] was 8.22 µM (active), the AC50 [7] was 17.7 µM (active) and the AC50 [8] was > 70 µM (inactive). For the same compound, the AC50 [9] was 46.1 µM (active).

In the case of `Cc1cccc(-c2ccc([C@H]3[C@H]4CN(S(=O)(=O)c5cccc(C)c5)CCCCN4[C@H]3CO)cc2)c1`, the AC50 (Paired box protein Pax-8) was 7.45 µM (active), the AC50 [10] was 43.5 µM (active) and the AC50 [11] was 67.1 µM (active). The AC50 [12] was 44.6 µM (active), the AC50 [13] was 2.07 µM (active) and the AC50 [14] was > 100 µM (inactive). The AC50 [15] was 2.62 µM (active), the AC50 [16] was 1.19 µM (active) and the AC50 [17] was > 39 µM (inactive). For the same compound, the AC50 [18] was 1.42 µM (active).

With `Cc1ccc(C)c(S(=O)(=O)Nc2ccccc2C(=O)Nc2ccccc2N2CCOCC2)c1` the CC50 [19] was > 40 µM (active).

For `COc1ccc(/C=C2\SC(=S)N(CCCC(=O)Nc3ccc(O)cc3)C2=O)cc1`, the IC50 [20] was > 32 µM (not active), the IC50 [21] was > 32 µM (inactive) and the IC50 [22] was > 80 µM (inactive). For the same compound, the AC50 [23] was > 380 µM (inactive) and the EC50 (Protein RecA) was 78.1 µM (active).

With `COC(=O)C1=C(C)N(Cc2ccc(C(F)(F)F)cc2)C(NCc2ccccc2C(F)(F)F)=NC1c1cccc(Cl)c1` (centres undefined) the IC50 [24] was > 96.6 µM (inactive).

In the case of `O=C(CCn1c(=S)oc2ccccc21)NC1CCCCC1`, the IC50 [25] was > 67.6 µM (inactive) and the EC50 [26] was > 67.6 µM (inactive).
